# Assay results: patent US10800732B2, “Substituted malonamides and their use as antibacterial drugs” (National Taiwan University, priority 2015, dated 2020)
# Read-outs that look alike come from different tables or passages of the source.
# Assays:
# MRSA (ATCC 43300) [1] = experiment: Minimal biofilm eradication concentration, MRSA in the biofilm; assay type: cell-based, methicillin-resistant Staphylococcus aureus; conditions: MRSA (ATCC 43300) in the biofilm
# Protocol: A biofilm is composed of attached microorganisms enclosed in an extracellular polymeric substance matrix. Bacteria embedded in the biofilm are protected from antibiotic-mediated killing and the immune response. Reports have shown that biofilm formation is an important factor contributing to S. aureus infections of the skin, lung and indwelling medical devices such as catheters. Thus, the effect of SC5005 on MRSA in a biofilm was assayed.
# MRSA (ATCC 43300) [2] = experiment: MIC, MRSA ATCC 43300; assay type: cell-based, methicillin-resistant Staphylococcus aureus; conditions: Staphylococcus aureus
# S. aureus NCTC 8325 [3] = experiment: MIC, S. aureus NCTC 8325 (CLSI broth microdilution / agar dilution); assay type: cell-based, Staphylococcus aureus
# Human HT-29 cells = experiment: LDH release assay (membrane integrity); assay type: cell-based; conditions: 1 hour, concentration up to 128-fold of MIC against S. aureus
# Protocol: FIG. 10. Membrane integrity of human cells treated with SC5005 and SC5035. Human HT-29 cells were treated with SC5005 and SC5035 for 1 hour followed by the evaluation of membrane integrity with LDH release assay. LDH released from HT-29 cells into culture medium was assessed by using CytoTox 96 NonRadioactive Cytotoxicity Assay. Cell treated with 1% triton X-100 serves as positive control (100% release). Bars represent the mean, and error bars represent the SD (n=3).
# To further validate the activity of SC5005 and SC5035 on the membrane of human cells, the integrity of cellular membrane of cells treated with these two compounds was assessed by using LDH release assay. Human HT-29 cells were treated with SC5005 and SC5035 for 1 hour, and then the LDH released from cell into culture medium was assayed.
# MRSA ATCC 33592 = experiment: MIC, MRSA ATCC 33592; assay type: cell-based, methicillin-resistant Staphylococcus aureus; conditions: Staphylococcus aureus
# S. aureus NCTC 8325 [4] = experiment: Membrane integrity (SYTO 9 / propidium iodide staining); assay type: cell-based, Staphylococcus aureus; conditions: 4×MIC (Triton X-100: 10%) for 15 minutes
# Excerpt: FIG. 7. Membrane integrity of S. aureus after SC5005, SC5035 and five common antibiotics treatment. […] SYTO 9, a green fluorescence dye, stains chromosome of all bacteria cells, regardless of the membrane integrity. In contrast, propidium iodide (PI), a red fluorescence dye, only stains cell with damaged membrane. Thus, bacteria cell with intact membrane can only be stained by SYTO 9, and cell with perforated membrane will be stained by both fluorescence dyes, showing a yellow color in merged images.
# To further validate the action mechanism of SC5005 and SC5035, two fluorescence dyes were used for evaluation of membrane integrity of drug treated S. aureus. The propidium iodide dye only stains cells with perforated membrane, while the SYTO 9 stains all cells in spite of membrane integrity.
# S. aureus NCTC 8325 [5] = experiment: Biosynthesis of macromolecules (3H precursor incorporation); assay type: cell-based, Staphylococcus aureus; conditions: 4×MIC for 1 h
# Protocol: FIG. 5. Effect of SC5005 and SC5035 on the biosynthesis of macromolecules in S. aureus. […] Meanwhile, ofloxacin (1 mg/L), rifampicin (1 mg/L), erythromycin (2 mg/L), and vancomycin (2 mg/L) were used as control inhibitors for the biosynthesis of DNA, RNA, protein and cell wall, respectively. Data are means of three independent experiments. Error bars represent the SD.
# To investigate the mode of action of SC5005, a new derivative, SC5035, with better selectivity of antibacterial activity over cytotoxicity was included in the assays. First, the impacts of these two compounds on the biosynthesis of important macromolecules, including DNA, RNA, protein and cell wall, in S. aureus NCTC 8325 were assessed. Bacteria cells were incubated with [^3H]thymidine to assess DNA synthesis, [^3H] uridine to assess RNA synthesis, [^3H] leucine to assess protein synthesis, and [^3H] N-Acetyl-D-glucosamine to assess cell wall synthesis. The ofloxacin, rifampicin, erythromycin and vancomycin were used as control inhibitor for DNA, RNA, protein, and cell wall biosynthesis, respectively. Inhibition of biosynthesis pathway was determined by a reduction in the radial isotope signal of bacteria.
# S. aureus NCTC 8325 [6] = experiment: Intracellular ATP leakage (ATPlite one-step); assay type: cell-based, Staphylococcus aureus; conditions: 4×MIC for 15 min
# Protocol: FIG. 6. Intracellular ATP leakage of S. aureus treated with SC5005, SC5035 and antibiotics. […] Data was presented as percentage of intracellular ATP level to that of untreated bacteria cells (considered as 100%). Bars represent the mean, and error bars represent the SD (n=3). ***: p-value <0.001
# To investigate whether SC5005 and SC5035 also act on bacterial cell membrane, intracellular ATP levels of S. aureus treated with SC5005, SC5035 and antibiotics for 15 min was determined by using ATPlite one-step assay kit.
# human red blood cells = experiment: Hemolytic activity; assay type: cell-based; conditions: 1 h, concentration up to 128-fold of MIC against S. aureus
# Protocol: FIG. 9. Hemolytic activities of SC5005 and SC5035 on human red blood cell. Human red blood cells were incubated with SC5005 (A) and SC5035 (B) for 1 h followed by measuring the absorption of RBC released hemoglobin at 540 nm with microplate reader. Cell treated with 1% triton X-100 serves as positive control (P.C.; 100% hemolysis), and those treated with normal saline serves as negative control (N.C.) Bars represent the mean, and error bars represent the SD (n=3).
# As data shown above, SC5005 and SC5035 can kill bacteria via forming pore in bacterial membrane. To see whether the pore-forming activity of these two compounds is specific for bacterial membrane, the hemolytic activities of these two agents on human red blood cells were accessed.
# [7] = test system: clinical isolated VISA strain; experiment: MIC, VISA; assay type: cell-based, vancomycin-intermediate Staphylococcus aureus
# MRSA ATCC 49476 = experiment: MIC, MRSA ATCC 49476; assay type: cell-based, methicillin-resistant Staphylococcus aureus; conditions: Staphylococcus aureus
# S. aureus NCTC 8325 [8] = assay type: cell-based, Staphylococcus aureus; conditions: sub-inhibitory concentration for 30 consecutive days
# MRSA SCCmec VT = experiment: MIC, MRSA SCCmec VT; assay type: cell-based, methicillin-resistant Staphylococcus aureus; conditions: Staphylococcus aureus, MRSA
# VRSA (SJC1200) = experiment: MIC, VRSA; assay type: cell-based, vancomycin-resistant Staphylococcus aureus
# [9] = test system: S. epidermidis ATCC 12228; experiment: MIC, S. epidermidis ATCC 12228; assay type: cell-based; conditions: Staphylococcus epidermidis, ATCC12228
# [10] = MRSA (ATCC 43300), read-out: MIC
compound,measurement,setting,value
CCCCCCCCCC(=O)N[C@@H](Cc1c[nH]c2ccccc12)C(=O)N[C@H](CC(N)=O)C(=O)N[C@@H](CC(=O)O)C(=O)N[C@@H]1C(=O)NCC(=O)N[C@@H](CCCN)C(=O)N[C@@H](CC(=O)O)C(=O)N[C@H](C)C(=O)N[C@@H](CC(=O)O)C(=O)NCC(=O)N[C@H](CO)C(=O)N[C@@H]([C@H](C)CC(=O)O)C(=O)N[C@@H](CC(=O)c2ccccc2N)C(=O)O[C@@H]1C [Daptomycin],MBEC,MRSA (ATCC 43300) [1],1024 mg/L
same,MIC,MRSA (ATCC 43300) [2]; [10],0.5 µg/mL
CC(=O)NC[C@H]1CN(c2ccc(N3CCOCC3)c(F)c2)C(=O)O1 [Linezolid],MBEC,MRSA (ATCC 43300) [1],>1024 mg/L
same,MBEC,MRSA (ATCC 43300) [1]; listed as linezolid,1024 mg/L
same,MIC,MRSA (ATCC 43300) [2]; [10],1 µg/mL
"O=C(Nc1cc(Cl)cc(Cl)c1)C(CCCl)C(=O)Nc1ccc(Cl)c(C(F)(F)F)c1 (stereo not drawn) [SC5035, N^1-(4-chloro-3-(trifluoromethyl)phenyl)-2-(2-chloroethyl)-N^3-(3,5-dichlorophenyl)malonamide]",MIC,"S. aureus NCTC 8325 [3]; Staphylococcus aureus, MSSA NCTC 8325, Table 6, read-out: MIC",0.25 µg/mL
same,LDH level released into culture medium,Human HT-29 cells,no significant increase in the LDH level
same,MIC,"MRSA ATCC 33592; MRSA ATCC 33592, Table 6, read-out: MIC",0.25 µg/mL
same,propidium iodide staining (membrane integrity),S. aureus NCTC 8325 [4],can be stained by propidium iodide
same,"incorporation signal in DNA, RNA, protein and cell wall biosynthesis",S. aureus NCTC 8325 [5],lower signal in all four macromolecule biosynthesis pathway
same,intracellular ATP levels,S. aureus NCTC 8325 [6],significantly dropped
same,hemolysis of RBC,human red blood cells,no significant hemolysis
"CN[C@H](CC(C)C)C(=O)N[C@H]1C(=O)N[C@@H](CC(N)=O)C(=O)N[C@H]2C(=O)N[C@H]3C(=O)N[C@H](C(=O)N[C@H](C(=O)O)c4cc(O)cc(O)c4-c4cc3ccc4O)[C@H](O)c3ccc(c(Cl)c3)Oc3cc2cc(c3O[C@@H]2O[C@H](CO)[C@@H](O)[C@H](O)[C@H]2O[C@H]2C[C@](C)(N)[C@H](O)[C@H](C)O2)Oc2ccc(cc2Cl)[C@H]1O [Vancomycin, reference compound]",MIC,"S. aureus NCTC 8325 [3]; S. aureus (NCTC 8325), Table 3",0.5 µg/mL
same,MIC,"S. aureus NCTC 8325 [3]; Staphylococcus aureus, NCTC8325",0.5 µg/mL
same,MIC,"[7]; Staphylococcus aureus, VISA",4 µg/mL
same,increase in the value of MIC,[7]; VISA compared to vancomycin-susceptible S. aureus (VSSA),4 fold
same,MBEC,MRSA (ATCC 43300) [1],1024 mg/L
same,MBEC,MRSA (ATCC 43300) [1]; listed as vancomycin,> 1024 mg/L
same,MIC,MRSA (ATCC 43300) [2],1 µg/mL
same,MIC,MRSA ATCC 49476,1 µg/mL
same,fold MIC change (resistance),S. aureus NCTC 8325 [8],4 fold
same,MIC,MRSA ATCC 33592,1 µg/mL
same,MIC,MRSA SCCmec VT,1 µg/mL
same,MIC,"VRSA (SJC1200); Staphylococcus aureus, VRSA",512 µg/mL
same,decrease in the susceptibility,VRSA (SJC1200); VRSA compared to VSSA,over five-hundred decrease in the susceptibility
same,MIC,[9],1 µg/mL
Triton X-100 [reference compound],propidium iodide staining (membrane integrity),S. aureus NCTC 8325 [4],can be stained by propidium iodide
